Paper PMC6789782, “Safety Pharmacological Evaluation of the Coffee Component, Caffeoylquinic Acid, and Its Metabolites, Using Ex Vivo and In Vitro Profiling Assays” (Pharmaceuticals, 2019)
Where two headings read alike, the source gives them in different places.

Columns and labels:
Assay in all cases: In vitro profiling, binding assay
[1] = biological target: T1, 5-HT1A (Homo sapiens, UniProt P08908)
T1 sequence (P08908 1-422): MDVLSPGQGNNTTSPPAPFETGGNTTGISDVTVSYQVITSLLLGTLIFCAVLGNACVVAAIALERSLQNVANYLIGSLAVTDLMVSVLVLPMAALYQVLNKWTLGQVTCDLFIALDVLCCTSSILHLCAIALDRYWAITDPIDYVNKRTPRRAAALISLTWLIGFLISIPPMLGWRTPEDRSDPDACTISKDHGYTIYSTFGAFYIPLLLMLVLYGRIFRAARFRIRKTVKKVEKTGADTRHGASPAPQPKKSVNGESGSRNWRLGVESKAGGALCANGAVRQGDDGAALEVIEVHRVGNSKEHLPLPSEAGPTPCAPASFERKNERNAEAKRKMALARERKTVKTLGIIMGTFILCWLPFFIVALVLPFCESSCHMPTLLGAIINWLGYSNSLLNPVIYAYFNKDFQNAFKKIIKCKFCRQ
Method: (§1) Binding and functional assays of CGAs with the proteins known to be pharmacological targets related to the CVS, CNS, and GI functions were conducted. […] In the binding assay, we measured the radiation activity of the solution containing filtered proteins that bound to the tested compound or high-affinity ligand, while in the functional assays, we measured the reaction product. The ability of the test compound to interact with the tested targets was measured as the inhibition of ligand binding to the target or reaction product production (% inhibition).

[2] = biological target: 5-HT2A (Homo sapiens, UniProt P28223)
Chain of 5-HT2A (P28223 whole entry): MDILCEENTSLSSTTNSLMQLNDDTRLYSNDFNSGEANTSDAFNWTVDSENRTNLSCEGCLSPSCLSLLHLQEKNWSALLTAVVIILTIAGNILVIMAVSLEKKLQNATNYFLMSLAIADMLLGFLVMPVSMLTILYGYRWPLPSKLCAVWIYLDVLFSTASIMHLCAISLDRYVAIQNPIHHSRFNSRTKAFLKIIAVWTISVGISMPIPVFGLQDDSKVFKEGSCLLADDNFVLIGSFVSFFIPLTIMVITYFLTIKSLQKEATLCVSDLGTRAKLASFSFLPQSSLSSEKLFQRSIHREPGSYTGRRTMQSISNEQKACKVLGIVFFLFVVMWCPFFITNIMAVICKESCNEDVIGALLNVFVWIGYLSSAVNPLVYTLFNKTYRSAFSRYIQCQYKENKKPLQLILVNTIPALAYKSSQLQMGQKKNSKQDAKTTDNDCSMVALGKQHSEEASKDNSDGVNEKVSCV
Method: as §1

[3] = biological target: T2, Adrenergic α1A (Rattus norvegicus, UniProt P43140)
T2 sequence (P43140 1-466): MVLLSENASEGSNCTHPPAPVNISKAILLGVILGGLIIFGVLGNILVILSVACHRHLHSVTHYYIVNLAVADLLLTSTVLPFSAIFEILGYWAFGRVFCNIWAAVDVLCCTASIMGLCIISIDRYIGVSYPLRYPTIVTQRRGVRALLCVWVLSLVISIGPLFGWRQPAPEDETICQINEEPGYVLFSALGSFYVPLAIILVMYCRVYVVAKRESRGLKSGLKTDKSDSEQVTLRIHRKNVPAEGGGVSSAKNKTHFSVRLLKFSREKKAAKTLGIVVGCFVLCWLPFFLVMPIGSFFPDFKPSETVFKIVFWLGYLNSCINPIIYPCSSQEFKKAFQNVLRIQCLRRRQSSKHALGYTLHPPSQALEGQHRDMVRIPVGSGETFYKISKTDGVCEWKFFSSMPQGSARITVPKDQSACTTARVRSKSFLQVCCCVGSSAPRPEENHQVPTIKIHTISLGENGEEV
Method: as §1

[4] = biological target: T3, Adrenergic α2A (Homo sapiens, UniProt P08913)
T3 sequence (P08913 1-465): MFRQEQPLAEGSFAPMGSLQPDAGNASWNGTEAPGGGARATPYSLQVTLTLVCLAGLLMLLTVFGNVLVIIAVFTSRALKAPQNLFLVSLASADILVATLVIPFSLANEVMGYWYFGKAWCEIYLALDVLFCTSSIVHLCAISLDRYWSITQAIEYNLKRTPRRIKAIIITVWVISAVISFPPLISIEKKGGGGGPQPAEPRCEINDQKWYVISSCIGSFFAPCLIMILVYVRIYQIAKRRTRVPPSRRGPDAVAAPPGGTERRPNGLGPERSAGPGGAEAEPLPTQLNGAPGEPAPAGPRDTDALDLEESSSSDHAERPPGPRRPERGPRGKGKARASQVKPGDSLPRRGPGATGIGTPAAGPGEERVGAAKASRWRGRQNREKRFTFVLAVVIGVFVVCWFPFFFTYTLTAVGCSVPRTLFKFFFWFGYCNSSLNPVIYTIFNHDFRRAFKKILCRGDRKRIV
Method: as §1

[5] = biological target: T4, Cholecystokinin CCK1 (CCKA) (Homo sapiens, UniProt P32238)
T4 sequence (P32238 1-428): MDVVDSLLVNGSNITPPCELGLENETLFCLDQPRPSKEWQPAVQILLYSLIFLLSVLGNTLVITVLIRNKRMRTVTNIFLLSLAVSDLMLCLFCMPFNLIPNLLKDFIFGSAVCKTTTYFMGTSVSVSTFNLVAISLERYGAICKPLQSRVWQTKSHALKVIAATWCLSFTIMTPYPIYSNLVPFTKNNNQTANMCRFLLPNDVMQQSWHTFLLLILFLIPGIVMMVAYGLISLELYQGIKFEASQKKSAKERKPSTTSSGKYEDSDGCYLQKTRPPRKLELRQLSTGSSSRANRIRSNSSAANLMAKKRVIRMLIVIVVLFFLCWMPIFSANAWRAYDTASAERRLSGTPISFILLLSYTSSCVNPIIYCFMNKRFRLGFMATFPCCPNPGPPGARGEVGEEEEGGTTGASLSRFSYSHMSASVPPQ
Method: as §1

[6] = biological target: Dopamine D2L (Homo sapiens, UniProt P14416)
Chain of Dopamine D2L (P14416 whole entry): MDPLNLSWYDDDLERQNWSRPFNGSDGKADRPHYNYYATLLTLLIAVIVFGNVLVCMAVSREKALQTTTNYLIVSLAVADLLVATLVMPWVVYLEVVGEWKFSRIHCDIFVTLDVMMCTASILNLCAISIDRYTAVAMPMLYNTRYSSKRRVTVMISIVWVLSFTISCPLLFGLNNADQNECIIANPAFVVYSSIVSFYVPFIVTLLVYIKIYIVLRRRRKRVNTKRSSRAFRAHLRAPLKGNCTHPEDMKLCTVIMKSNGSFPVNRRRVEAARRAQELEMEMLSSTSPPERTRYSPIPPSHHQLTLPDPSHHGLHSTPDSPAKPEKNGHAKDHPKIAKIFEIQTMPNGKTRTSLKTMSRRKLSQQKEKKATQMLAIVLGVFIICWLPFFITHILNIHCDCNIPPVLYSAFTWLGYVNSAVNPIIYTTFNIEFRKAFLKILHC
Method: as §1

[7] = biological target: T5, Endothelin ETA (Homo sapiens, UniProt P25101)
T5 sequence (P25101 21-427): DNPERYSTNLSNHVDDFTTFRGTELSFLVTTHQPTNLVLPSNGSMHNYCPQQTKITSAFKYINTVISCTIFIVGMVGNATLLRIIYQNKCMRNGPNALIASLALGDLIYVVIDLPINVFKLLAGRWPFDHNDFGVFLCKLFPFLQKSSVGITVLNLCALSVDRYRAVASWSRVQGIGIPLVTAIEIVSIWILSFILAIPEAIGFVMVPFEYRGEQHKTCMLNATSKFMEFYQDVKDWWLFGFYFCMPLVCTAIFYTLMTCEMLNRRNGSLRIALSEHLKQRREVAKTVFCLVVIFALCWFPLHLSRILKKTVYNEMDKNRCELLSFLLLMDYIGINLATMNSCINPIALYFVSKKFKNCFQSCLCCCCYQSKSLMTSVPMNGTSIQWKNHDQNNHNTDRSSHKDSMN
Method: as §1

[8] = biological target: Muscarinic M3 (Homo sapiens, UniProt P20309)
Chain of Muscarinic M3 (P20309 whole entry): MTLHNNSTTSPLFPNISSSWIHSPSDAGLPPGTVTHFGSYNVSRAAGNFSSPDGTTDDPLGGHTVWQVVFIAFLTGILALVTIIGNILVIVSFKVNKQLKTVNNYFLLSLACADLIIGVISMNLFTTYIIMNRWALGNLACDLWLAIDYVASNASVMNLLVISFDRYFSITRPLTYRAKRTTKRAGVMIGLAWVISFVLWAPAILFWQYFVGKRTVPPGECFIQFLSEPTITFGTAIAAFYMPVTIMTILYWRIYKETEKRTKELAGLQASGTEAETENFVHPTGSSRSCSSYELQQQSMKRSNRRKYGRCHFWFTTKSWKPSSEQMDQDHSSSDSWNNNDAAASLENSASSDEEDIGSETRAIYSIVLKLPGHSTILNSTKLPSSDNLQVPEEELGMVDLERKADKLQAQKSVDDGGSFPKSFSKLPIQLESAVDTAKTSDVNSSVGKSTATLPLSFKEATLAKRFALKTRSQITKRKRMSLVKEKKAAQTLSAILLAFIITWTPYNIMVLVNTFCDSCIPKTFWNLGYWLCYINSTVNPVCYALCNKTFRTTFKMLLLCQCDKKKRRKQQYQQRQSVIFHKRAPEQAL
Method: as §1

[9] = biological target: Opiate κ (Homo sapiens, UniProt P41145)
Chain of Opiate κ (P41145 whole entry): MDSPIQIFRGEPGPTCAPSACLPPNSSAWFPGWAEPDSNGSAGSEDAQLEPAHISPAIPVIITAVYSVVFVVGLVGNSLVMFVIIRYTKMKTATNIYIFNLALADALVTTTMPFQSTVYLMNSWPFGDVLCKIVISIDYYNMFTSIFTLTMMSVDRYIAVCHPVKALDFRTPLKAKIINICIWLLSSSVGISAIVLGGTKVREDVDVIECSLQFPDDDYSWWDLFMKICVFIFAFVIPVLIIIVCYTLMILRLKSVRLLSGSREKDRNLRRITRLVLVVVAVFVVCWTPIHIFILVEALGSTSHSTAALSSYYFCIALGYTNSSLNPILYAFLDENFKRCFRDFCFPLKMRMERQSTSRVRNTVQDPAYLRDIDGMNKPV
Method: as §1

[10] = biological target: Transporter, Dopamine (DAT) (Homo sapiens, UniProt Q01959)
Chain of Transporter, Dopamine (DAT) (Q01959 whole entry): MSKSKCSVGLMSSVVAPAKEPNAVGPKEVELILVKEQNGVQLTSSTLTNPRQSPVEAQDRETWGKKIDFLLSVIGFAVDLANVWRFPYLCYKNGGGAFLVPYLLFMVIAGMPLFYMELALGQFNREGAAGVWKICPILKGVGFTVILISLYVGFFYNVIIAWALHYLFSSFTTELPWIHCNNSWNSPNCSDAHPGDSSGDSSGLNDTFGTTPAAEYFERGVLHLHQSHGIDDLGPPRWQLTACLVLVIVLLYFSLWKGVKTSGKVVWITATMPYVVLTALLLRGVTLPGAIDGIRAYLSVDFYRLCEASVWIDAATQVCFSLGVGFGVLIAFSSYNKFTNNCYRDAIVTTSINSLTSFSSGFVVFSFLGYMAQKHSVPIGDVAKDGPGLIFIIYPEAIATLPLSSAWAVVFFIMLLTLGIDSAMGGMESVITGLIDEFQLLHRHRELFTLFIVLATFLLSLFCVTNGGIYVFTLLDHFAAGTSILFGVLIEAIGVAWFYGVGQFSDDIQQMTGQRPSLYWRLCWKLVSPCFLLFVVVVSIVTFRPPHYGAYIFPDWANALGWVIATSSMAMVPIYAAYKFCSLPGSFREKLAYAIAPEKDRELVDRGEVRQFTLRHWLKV
Method: as §1

[11] = biological target: Vasopressin V1A (Homo sapiens, UniProt P37288)
Chain of Vasopressin V1A (P37288 whole entry): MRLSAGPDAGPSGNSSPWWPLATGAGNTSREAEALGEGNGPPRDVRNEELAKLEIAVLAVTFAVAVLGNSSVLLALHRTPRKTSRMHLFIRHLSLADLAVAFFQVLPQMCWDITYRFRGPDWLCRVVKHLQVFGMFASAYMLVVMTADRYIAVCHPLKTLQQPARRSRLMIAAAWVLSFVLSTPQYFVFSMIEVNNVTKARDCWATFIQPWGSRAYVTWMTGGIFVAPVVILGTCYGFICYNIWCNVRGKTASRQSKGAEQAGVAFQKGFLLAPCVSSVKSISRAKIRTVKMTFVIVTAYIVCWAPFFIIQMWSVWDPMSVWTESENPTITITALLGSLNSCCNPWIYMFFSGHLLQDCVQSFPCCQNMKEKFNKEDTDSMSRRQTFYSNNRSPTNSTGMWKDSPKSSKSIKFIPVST
Method: as §1

[12] = 30 µM, 5-HT1A, read-out: % Inhibition
[13] = 30 µM, Adrenergic α1A, read-out: % Inhibition
[14] = 30 µM, Adrenergic α2A, read-out: % Inhibition
[15] = 30 µM, Cholecystokinin CCK1 (CCKA), read-out: % Inhibition
[16] = 30 µM, Dopamine D2L, read-out: % Inhibition
[17] = 30 µM, Endothelin ETA, read-out: % Inhibition
[18] = 30 µM, Opiate κ, read-out: % Inhibition
[19] = 30 µM, Transporter, Dopamine (DAT), read-out: % Inhibition
[20] = 30 µM, Vasopressin V1A, read-out: % Inhibition

Row | SMILES | inhibition at 30 µM [1, 12] | inhibition at 30 µM [2] | inhibition at 30 µM [3, 13] | inhibition at 30 µM [4, 14] | inhibition at 30 µM [5, 15] | inhibition at 30 µM [6, 16] | inhibition at 30 µM [7, 17] | inhibition at 30 µM [8] | inhibition at 30 µM [9, 18] | inhibition at 30 µM [10, 19] | inhibition at 30 µM [11, 20] | inhibition at 30 µM [6] | also measured
1 | O=C(/C=C/c1ccc(O)c(O)c1)O[C@H]1C[C@@](O)(C(=O)O)C[C@H](O)[C@@H]1O [5-CQA, 5-O-caffeoylquinic acid] | 12% | 3% | 14% | 5% | 10% | 7% | 3% | 5% | -3% | -10% | 0% |  | 
2 | COc1cc(/C=C/C(=O)O[C@H]2C[C@@](O)(C(=O)O)C[C@H](O)[C@@H]2O)ccc1O [5-FQA, 5-O-feruloylquinic acid] | 11% | 8% | 10% | -3% | 7% | -8% | 1% | 2% | -7% | 6% | 16% |  | 
3 | COc1cc(/C=C/C(=O)O)ccc1O [FA, ferulic acid] |  |  |  |  |  |  |  |  |  |  |  | 9% | inhibition at 30 µM [1]: 2%; inhibition at 30 µM [3]: -2%; inhibition at 30 µM [4]: -2%; inhibition at 30 µM [5]: 1%; inhibition at 30 µM [7]: 1%; inhibition at 30 µM [9]: 3%; inhibition at 30 µM [10]: 0%; inhibition at 30 µM [11]: 6%
4 | O=C(O)/C=C/c1ccc(O)c(O)c1 [CA, caffeic acid] |  | 7% |  |  |  |  |  |  |  |  |  | 16% | % Inhibition ([1]; 30 µM, 5-HT1A): 9%; % Inhibition ([3]; 30 µM, Adrenergic α1A): 10%; % Inhibition ([4]; 30 µM, Adrenergic α2A): −4%; % Inhibition ([5]; 30 µM, Cholecystokinin CCK1 (CCKA)): 12%; % Inhibition ([7]; 30 µM, Endothelin ETA): 4%; % Inhibition ([8]; 30 µM): −3%; % Inhibition ([9]; 30 µM, Opiate κ): 3%; % Inhibition ([10]; 30 µM, Transporter, Dopamine (DAT)): 2%; % Inhibition ([11]; 30 µM, Vasopressin V1A): 9%
